Assay results from ChEMBL document CHEMBL1140382, “11C-labeling of n-[4-[4-(2,3-dichlorophenyl)piperazin-1-yl]butyl]arylcarboxamide derivatives and evaluation as potential radioligands for PET imaging of dopamine D3 receptors” (J Med Chem, 2005).

What was measured:
[1] = molecular target: D(3) dopamine receptor (Rattus norvegicus, UniProt P19020); experiment: Binding affinity for rat dopamine D3 receptor using [11C]GR-218,231
[2] = molecular target: D(2) dopamine receptor (Rattus norvegicus, UniProt P61169); experiment: Binding affinity towards rat dopamine D2 receptor using [11C] radiotracer
[3] = molecular target: T1, D(4) dopamine receptor (Rattus norvegicus, UniProt P30729); experiment: Binding affinity for rat dopamine D4 receptor using [11C] radiotracer
T1 sequence (P30729 whole entry): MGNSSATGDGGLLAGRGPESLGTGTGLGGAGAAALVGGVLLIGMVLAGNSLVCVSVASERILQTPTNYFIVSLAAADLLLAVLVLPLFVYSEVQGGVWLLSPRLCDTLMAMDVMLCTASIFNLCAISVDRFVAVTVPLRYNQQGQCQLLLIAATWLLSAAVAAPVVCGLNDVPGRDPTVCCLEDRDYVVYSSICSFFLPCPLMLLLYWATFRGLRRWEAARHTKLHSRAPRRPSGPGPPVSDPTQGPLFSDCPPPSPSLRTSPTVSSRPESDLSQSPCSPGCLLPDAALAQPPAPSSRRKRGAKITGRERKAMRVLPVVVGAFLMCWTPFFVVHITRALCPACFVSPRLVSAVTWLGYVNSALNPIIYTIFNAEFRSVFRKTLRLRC

[4] = molecular target: Sigma non-opioid intracellular receptor 1 (Rattus norvegicus, UniProt Q9R0C9); experiment: Binding affinity for rat Opioid receptor sigma 1 using [11C] radiotracer
[5] = molecular target: D(3) dopamine receptor (Rattus norvegicus) (UniProt P19020)
Sequence of D(3) dopamine receptor (Rattus norvegicus) (P19020 whole entry): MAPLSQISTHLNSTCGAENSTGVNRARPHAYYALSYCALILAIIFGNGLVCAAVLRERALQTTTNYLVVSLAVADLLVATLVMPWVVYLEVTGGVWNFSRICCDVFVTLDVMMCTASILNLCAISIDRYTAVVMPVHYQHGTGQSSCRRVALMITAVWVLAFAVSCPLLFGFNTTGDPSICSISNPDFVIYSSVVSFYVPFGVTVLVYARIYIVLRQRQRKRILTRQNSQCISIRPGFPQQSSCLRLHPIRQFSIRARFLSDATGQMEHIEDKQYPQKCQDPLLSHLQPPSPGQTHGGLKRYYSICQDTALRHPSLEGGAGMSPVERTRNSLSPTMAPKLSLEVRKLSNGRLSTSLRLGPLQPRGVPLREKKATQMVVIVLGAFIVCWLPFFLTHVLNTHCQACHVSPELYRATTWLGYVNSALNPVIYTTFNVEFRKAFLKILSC

Sequence of D(2) dopamine receptor (P61169 whole entry): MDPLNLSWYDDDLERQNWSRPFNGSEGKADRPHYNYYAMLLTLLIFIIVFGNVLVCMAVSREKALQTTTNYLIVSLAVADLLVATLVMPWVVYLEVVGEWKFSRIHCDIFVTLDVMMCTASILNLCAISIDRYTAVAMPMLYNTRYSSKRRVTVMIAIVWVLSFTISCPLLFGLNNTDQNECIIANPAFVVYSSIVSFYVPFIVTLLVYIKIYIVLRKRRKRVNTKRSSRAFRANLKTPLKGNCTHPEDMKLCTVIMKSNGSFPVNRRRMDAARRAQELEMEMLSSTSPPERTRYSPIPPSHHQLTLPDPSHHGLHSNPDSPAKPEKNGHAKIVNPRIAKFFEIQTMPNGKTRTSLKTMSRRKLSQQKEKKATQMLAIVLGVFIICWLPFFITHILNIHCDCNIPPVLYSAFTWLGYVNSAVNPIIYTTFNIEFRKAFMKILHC
Sequence of Sigma non-opioid intracellular receptor 1 (Q9R0C9 whole entry): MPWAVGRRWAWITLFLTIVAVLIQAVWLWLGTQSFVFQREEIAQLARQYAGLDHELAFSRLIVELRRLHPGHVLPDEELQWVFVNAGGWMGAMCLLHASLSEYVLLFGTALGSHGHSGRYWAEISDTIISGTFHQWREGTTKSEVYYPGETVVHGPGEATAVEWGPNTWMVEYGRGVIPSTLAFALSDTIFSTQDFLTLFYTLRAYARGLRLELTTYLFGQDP
Sequence of D(3) dopamine receptor (P19020 whole entry): as the sequence (P19020 whole entry) above

| Ki [1] [nM] | Ki [2] [nM] | Ki [3] [nM] | Ki [4] [nM] | pKi [5] | SMILES |
| --- | --- | --- | --- | --- | --- |
| 2 |  |  |  |  | COc1cc(Br)cc(C(=O)NCCCCN2CCN(c3cccc(Cl)c3Cl)CC2)c1OC |
|  | 720 | 830 | 342 |  | COc1c(C(=O)NCCCCN2CCN(c3cccc(Cl)c3Cl)CC2)ccc2ccccc12 |
|  | 720 | 373 | 180 |  | COc1cccc2cc(C(=O)NCCCCN3CCN(c4cccc(Cl)c4Cl)CC3)oc12 |
|  |  |  |  | 9 | CCCN(CCC)C1CCc2cc(CS(=O)(=O)c3ccc(OC)cc3)ccc2C1 (stereo not drawn) |
